Several values for one entry are separate records, joined by “and”; a condition that tells them apart may be missing. Equal entries are not always repeated.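 Cultured in 96-well plates, cells were exposed to test compound for 48 hours across five concentrations. GI50 = concentration required for 50% inhibition of growth. The concentration for full growth arrest is given as TGI.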
The molecules below were run on MDA-MB-468 breast (assay: NCI tumour cell line growth inhibition, 48 h).

Question: What does the source list for `Cn1cnc2c(F)c(Nc3ccc(Br)cc3F)c(C(=O)NOCCO)cc21`?
Answer: GI50: 26900 nM; TGI: > 83.4 µM

Question: With `CC(C)C[C@H](NC(=O)CCn1ccc2ncccc2c1=O)B(O)O` as the molecule, how does the GI50 read?
Answer: 2350 nM

Question: What about the TGI of the same molecule?
Answer: 14.4 µM

Question: How did the GI50 turn out when `C[C@@H](COCCC(=O)N1CCN(c2ncc(C(F)(F)F)cn2)CC1)Nc1cn[nH]c(=O)c1C(F)(F)F` was run?
Answer: 17900 nM

Question: And the TGI?
Answer: > 100 µM

Question: For `CCOC(=O)C(=CN1CCNC1=S)C(=O)OCC`, which GI50 is on record?
Answer: > 100000 nM

Question: And the TGI?
Answer: > 100 µM

Question: How did the GI50 turn out when `CC(=O)Nc1ccc(NC(=O)Nc2cccc(-c3nc(-c4ccc(NC(=O)c5cccnc5)cc4Cl)no3)c2)cc1C(F)(F)F` was run?
Answer: 234 nM

Question: And the TGI?
Answer: 0.758 µM

Question: Which GI50 does the source give for `O=C(COc1cccc(/C=C2\Oc3ccc4ccccc4c3C2=O)c1)c1ccc(Cl)cc1` here?
Answer: 9620 nM

Question: And the TGI?
Answer: 43.3 µM

Question: Which GI50 does the source give for `Cc1ccc(Nc2cc(C)nc(NCCCNc3ccnc4cc(Cl)ccc34)n2)cc1` here?
Answer: 1430 nM

Question: And the TGI?
Answer: 2.92 µM

Question: Which GI50 does the source give for `COc1cc(C2CC(=O)Nc3c2ccc2ccccc32)cc(Br)c1OC` (configuration not stated) here?
Answer: 285 nM

Question: And the TGI?
Answer: 0.969 µM

Question: With `COc1cccc(CCC(=O)c2cc3c(N)c(C(=O)Nc4cccc(Cl)c4C)sc3nc2C)c1` as the molecule, how does the GI50 read?
Answer: 288 nM

Question: And the TGI?
Answer: 2.82 µM

Question: `COc1cc(NC(=O)NCc2ccco2)ccc1-c1ccc(NC(=O)NCc2ccco2)cc1OC` was tested. Which GI50 did it give?
Answer: 1820 nM

Question: And the TGI?
Answer: 4.61 µM

Question: `Cc1ncc(C(=O)Nc2ccc(CN3CCN(C)CC3)c(C(F)(F)F)c2)cc1C#Cc1c(N)ncc2ccccc12` was tested. Which GI50 did it give?
Answer: 577 nM

Question: What about the TGI of the same molecule?
Answer: 1.15 µM

Question: What does the source list for `Cc1cc(N(CCCNc2ccnc3cc(Cl)ccc23)Cc2ccc3c(c2)OCO3)nc(N2CCCCC2)n1`?
Answer: GI50: 1950 nM; TGI: 4.67 µM

Question: For `CC(C)C[C@H](NC(=O)[C@@H](NC(=O)c1cccc(-c2ccccc2)n1)[C@@H](C)O)B(O)O`, which GI50 is on record?
Answer: 2.44 nM

Question: What about the TGI of the same molecule?
Answer: 0.00685 µM

Question: For `NC(=O)c1ccccc1NC(=O)c1ccccc1Cl`, which GI50 is on record?
Answer: > 100000 nM

Question: And the TGI?
Answer: > 100 µM

Question: Which GI50 does the source give for `CN1C[C@@H]2Cn3c(c(C4=C(c5cn(C)c6ccccc56)C(=O)NC4=O)c4ccccc43)C[C@H]2C1` here?
Answer: 4040 nM and 3060 nM

Question: And the TGI?
Answer: 9.12 µM and 6.64 µM

Question: `CCCCCCCCCCCCCCCCCCOc1ccccc1CC(=O)NCC[N+](C)(C)C` was tested. Which GI50 did it give?
Answer: 2470 nM

Question: And the TGI?
Answer: 6.28 µM

Question: For `Nc1ccc(C(OC(=O)c2cc3ccccc3c(Cc3c(O)c(C(=O)OC(c4ccc(N)cc4)(c4ccc(N)cc4)c4ccc(N)cc4)cc4ccccc34)c2O)(c2ccc(N)cc2)c2ccc(N)cc2)cc1`, which GI50 is on record?
Answer: 252 nM

Question: And the TGI?
Answer: 2.13 µM

Question: How did the GI50 turn out when `COc1ccc(-c2ccc(-c3ccc(C(=N)N)cn3)o2)cc1Cl` was run?
Answer: 1840 nM

Question: What about the TGI of the same molecule?
Answer: 3.51 µM

Question: With `COc1ccc(Cn2cc3c(c2-c2cc(OC)c(OC)c(OC)c2)CCc2cnoc2-3)cc1N` as the molecule, how does the GI50 read?
Answer: 25.1 nM

Question: And the TGI?
Answer: 0.0735 µM

Question: For `COC(=O)[C@]12CC[C@@H](C)[C@H](C)[C@@H]1C1=CC[C@@H]3[C@@]4(C)C(C=O)=C[C@@](C)(COS(C)(=O)=O)C4[C@H](O)C[C@@]3(C)[C@]1(C)CC2` (some centres not stated), which GI50 is on record?
Answer: 2080 nM

Question: What about the TGI of the same molecule?
Answer: 4.1 µM

Question: Which results are given for `COc1cccc(C2SC(C)C(=O)N2CCc2cccs2)c1` (configuration not stated)?
Answer: GI50: 2250 nM; TGI: 7.32 µM

Question: With `CSc1ccc(SC2c3ccc(C)cc3Oc3nc(N)c(C#N)c(N)c32)cc1` (configuration not stated) as the molecule, how does the GI50 read?
Answer: 1740 nM

Question: What about the TGI of the same molecule?
Answer: 3.81 µM

Question: Which results are given for `N#C/C(=C\c1c(-c2ccccc2)[nH]c2ccccc12)C(=O)c1ccccc1`?
Answer: GI50: 5560 nM; TGI: > 100 µM

Question: What does the source list for `COc1ccc(-c2cc(-c3cccc(NS(C)(=O)=O)c3)nc(N)c2C#N)cc1`?
Answer: GI50: 1350 nM; TGI: 6.64 µM

Question: For `Clc1ccc(CNc2nccc(-c3cnn4ncccc34)n2)cc1`, which GI50 is on record?
Answer: 5620 nM

Question: What about the TGI of the same molecule?
Answer: 12.7 µM

Question: How did the GI50 turn out when `COc1c(Cl)ccc2c(-c3nc4cc(Cl)c(F)cc4s3)cc(=O)oc12` was run?
Answer: 4890 nM

Question: What about the TGI of the same molecule?
Answer: 34.4 µM

Question: Which results are given for `Cc1cc(C)c(S(=O)(=O)N(CCc2cccc(Br)c2)Cc2ccc(-c3cccc(S(C)(=O)=O)c3)cc2)c(C)c1`?
Answer: GI50: > 100000 nM; TGI: > 100 µM

Question: Which results are given for `COc1cc(F)c(/C=C/c2cc(/C=C/c3cc(OC)c(OC)cc3F)n(-c3cc(F)cc(F)c3)n2)cc1OC`?
Answer: GI50: 2390 nM; TGI: 5.72 µM

Question: Which GI50 does the source give for `CCNNC(=O)[C@@H]1[C@H](c2cc(OC)c(OC)c(OC)c2)c2cc3c(cc2[C@H](O)[C@H]1CO)OCO3` here?
Answer: 281 nM

Question: For `CCOc1nccc2c1nc(-c1nonc1N)n2CC`, which GI50 is on record?
Answer: > 25000 nM

Question: And the TGI?
Answer: > 25 µM

Question: How did the GI50 turn out when `CCN(CC)CCn1c2ccc(OC)cc2c2sc3cc(OC)ccc3c(=O)c21` was run?
Answer: 1560 nM

Question: And the TGI?
Answer: 3.21 µM

Question: `O=C(N/N=C/c1ccc(Cl)cc1Cl)c1ccc2nc(-c3ccc(Cl)cc3)[nH]c2c1` was tested. Which GI50 did it give?
Answer: 1640 nM

Question: What about the TGI of the same molecule?
Answer: 3.23 µM

Question: Which results are given for `COC(=O)[C@H](C)NC(=O)[C@@H](OC)[C@@H]1Cc2cc3cc(OC4CC(OC5CC(O)C(O)C(C)O5)C(O)C(C)O4)c(C)c(O)c3c(O)c2C(=O)[C@H]1OC1CC(OC2CC(OC3CC(C)(O)C(O)C(C)O3)C(O)C(C)O2)C(O)C(C)O1` (some centres not stated)?
Answer: GI50: 112 nM; TGI: 1.07 µM

Question: What does the source list for `Nc1nccc2c1ncn2C1OC(CO)C(O)C1O` (configuration not stated)?
Answer: GI50: > 100000 nM; TGI: > 100 µM

Source: PubChem BioAssay (NCI)
